The values that follow come from ChEMBL document CHEMBL5291721, “A preclinical secondary pharmacology resource illuminates target-adverse drug reaction associations of marketed drugs” (Nat Commun, 2023).

For assay [1], the target named is T1, Muscarinic acetylcholine receptor M1 (Homo sapiens, UniProt P11229).
T1 sequence (P11229 whole entry): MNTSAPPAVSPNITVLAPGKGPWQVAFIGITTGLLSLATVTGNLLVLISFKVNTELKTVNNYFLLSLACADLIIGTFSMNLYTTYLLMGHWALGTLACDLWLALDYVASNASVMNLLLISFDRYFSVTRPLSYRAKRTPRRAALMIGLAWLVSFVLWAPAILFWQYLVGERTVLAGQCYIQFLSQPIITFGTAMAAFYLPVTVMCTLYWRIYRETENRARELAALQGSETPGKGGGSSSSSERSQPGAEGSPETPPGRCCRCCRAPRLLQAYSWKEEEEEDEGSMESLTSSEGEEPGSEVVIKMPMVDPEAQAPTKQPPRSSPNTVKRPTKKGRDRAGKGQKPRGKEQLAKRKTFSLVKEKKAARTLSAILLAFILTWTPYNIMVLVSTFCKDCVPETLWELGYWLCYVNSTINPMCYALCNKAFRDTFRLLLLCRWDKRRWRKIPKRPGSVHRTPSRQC
It is filed as functional, cell-based.

For assay [2], the target named is T1, Muscarinic acetylcholine receptor M1. It is filed as functional, cell-based. The source holds these as a separate data set.
The target of assay [3] is T2, Muscarinic acetylcholine receptor M5 (Homo sapiens, UniProt P08912).
T2 sequence (P08912 whole entry): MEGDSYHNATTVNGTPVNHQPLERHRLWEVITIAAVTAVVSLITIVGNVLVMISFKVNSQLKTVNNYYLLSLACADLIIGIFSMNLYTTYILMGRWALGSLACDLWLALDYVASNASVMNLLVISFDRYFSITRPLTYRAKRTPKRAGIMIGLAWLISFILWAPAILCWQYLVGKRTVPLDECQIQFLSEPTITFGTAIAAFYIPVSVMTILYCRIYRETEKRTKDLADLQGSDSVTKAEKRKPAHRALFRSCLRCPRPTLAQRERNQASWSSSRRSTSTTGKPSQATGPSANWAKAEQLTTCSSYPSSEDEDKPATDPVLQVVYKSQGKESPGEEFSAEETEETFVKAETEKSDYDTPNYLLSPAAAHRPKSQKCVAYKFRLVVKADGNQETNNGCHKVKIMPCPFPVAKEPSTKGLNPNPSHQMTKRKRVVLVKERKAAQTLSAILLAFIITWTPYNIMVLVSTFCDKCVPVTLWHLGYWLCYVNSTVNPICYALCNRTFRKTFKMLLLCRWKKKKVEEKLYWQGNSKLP

In assay [4] the target is T1, Muscarinic acetylcholine receptor M1. The format is functional, cell-based. This is another data set of the same source.
Assay [5] addresses Sodium-dependent serotonin transporter (Homo sapiens, UniProt P31645).
Further: assay procedure not described here.

Sequence of Sodium-dependent serotonin transporter (P31645 whole entry): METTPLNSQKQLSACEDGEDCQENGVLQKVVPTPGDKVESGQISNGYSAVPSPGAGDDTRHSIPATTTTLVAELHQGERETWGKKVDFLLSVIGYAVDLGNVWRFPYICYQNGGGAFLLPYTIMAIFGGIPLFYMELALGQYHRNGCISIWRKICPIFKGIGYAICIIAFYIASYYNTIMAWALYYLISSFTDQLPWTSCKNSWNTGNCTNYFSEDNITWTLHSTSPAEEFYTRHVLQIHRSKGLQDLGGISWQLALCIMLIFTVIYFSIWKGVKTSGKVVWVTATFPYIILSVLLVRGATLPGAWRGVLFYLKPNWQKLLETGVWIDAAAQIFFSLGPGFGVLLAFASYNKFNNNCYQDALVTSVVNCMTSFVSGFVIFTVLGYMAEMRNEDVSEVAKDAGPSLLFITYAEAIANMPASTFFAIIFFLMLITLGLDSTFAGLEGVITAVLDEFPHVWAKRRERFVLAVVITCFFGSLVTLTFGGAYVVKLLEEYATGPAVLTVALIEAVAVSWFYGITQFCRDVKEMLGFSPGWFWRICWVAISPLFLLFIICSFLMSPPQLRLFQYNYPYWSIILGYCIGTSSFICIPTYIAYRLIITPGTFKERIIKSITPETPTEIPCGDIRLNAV

For orientation: AC50 means the concentration giving half of the maximal activity seen. Consider `C[N@+]1(CCF)[C@@H]2CC[C@H]1C[C@@H](OC(=O)C(O)(c1ccccc1)c1ccccc1)C2`, for which the figures for the AC50 in assay [1] and in assay [2] were over 30 µM and 0.0005 µM, respectively.
With `Cn1c(=O)cc(N2CCC[C@@H](N)C2)n(Cc2ccccc2C#N)c1=O` [ALOGLIPTIN], in assay [3], the concentration at half-maximal activity (AC50) is over 10 µM.
As to `Nc1c2ccccc2nc2ccccc12` [AMINACRINE], the AC50 in assay [4] was 20.4 µM; in assay [5], over 30 µM.
